Results on three compounds are retold here after patent publication US20220008438A1 (priority 2020, published 2022).

The conditions of series [1]: mechanically ventilated adult patients with moderate-to-severe ARDS, confirmed Covid-19 infection; cited from earlier work.
Another series concerns primary HIV-1 isolated. Briefly: HIV-1 replication in MT2 cell line assays. It is filed as cell-based. As to the method:
The total destruction of the viral culture was observed from concentrations of 25 μg/ml of TMA's Maslinic acid, while between 5 and 20 μg/ml, a decrease in viability was observed between 57% and 19%.

The next series has as its system murine macrophages. The settings on record: cited from earlier work.
For another series, the target named is HIV-1 protease (Human immunodeficiency virus type 1 group M subtype B, UniProt P04585). The note with it: in vitro; cited from earlier work.
For series [2] the following is noted: in vivo, cited from earlier work.

Bounds are passed on as bounds.

For the compound `C[C@@H]1C[C@H]2[C@@H]3CCC4=CC(=O)C=C[C@]4(C)[C@@]3(F)[C@@H](O)C[C@]2(C)[C@@]1(O)C(=O)CO` [Dexametasone], the “effectiveness, share of cases” value in series [1] is listed as 33%.
Consider `CC1(C)CC[C@]2(C(=O)O)CC[C@]3(C)C(=CC[C@@H]4[C@@]5(C)C[C@@H](O)[C@H](O)C(C)(C)[C@@H]5CC[C@]43C)[C@@H]2C1` [Maslinic acid, 2-alfa,3-betadihydroxy-28-carboxiolean-12-eno], for which, in the series on primary HIV-1 isolated, the “concentration giving total destruction of the viral culture” value is ≥ 25 µg/mL. Moreover, in the series on primary HIV-1 isolated (MT2 cell line, 25 μg/ml), the cytopathic effect entry was “decrease was detected” and the “level of p24 antigen in the culture supernatant” value is “decrease was detected”. Besides, in the series on primary HIV-1 isolated (MT2 cell line, 30 μg/ml), the cytopathic effect entry is “absence total cytopathic effect” and the p24 antigen entry is reported as “decrease in p24 antigen”. For the same compound, the “inhibitory effect on replication” value with primary HIV-1 isolated (between 5 and 20 μg/ml, cultures infected with different amounts of HIV-1) was “did not produce any inhibitory effect”. Further, in the series with murine macrophages, the pro-inflammatory cytokine generation result is “strong reduction”. Also, at HIV-1 protease, the “activity against the enzyme isolated from the HIV-1 protease” value is listed as “has in vitro activity”. The same compound returned a bioavailability in “in vivo” of 60%. In addition, the bioavailability compared entry in series [2] (human) is “higher than that of OA”. In addition, the “values in the biological fluids” value in series [2] is listed as “increased in the biological fluids in a dose-dependent manner”.
`CC1(C)CC[C@]2(C(=O)O)CC[C@]3(C)C(=CC[C@@H]4[C@@]5(C)CC[C@H](O)C(C)(C)[C@@H]5CC[C@]43C)[C@@H]2C1` [OA, Oleanolic acid]: the “values in the biological fluids” value in series [2] is given as “increased in the biological fluids in a dose-dependent manner”.
